Species on record: Rattus norvegicus
Assay: Open TG-GATES - Regimen: Daily Repeat
Type: toxicity, organism-based, Sprague-Dawley
Design: regimen Daily Repeat, gender Male, age 6 weeks
Settings: in vivo, po, 10 mg/kg, route gavage, dose level Low; for APTT / Bas / Eos / Fbg / Hb / Ht / Lym / MCH / MCHC / MCV / Mono / Neu / PT / Plat / RBC / Ret / WBC: tissue Blood; for KIDNEY_L / KIDNEY_R / KIDNEY_TOTAL: tissue Kidney; for LIVER: tissue Liver; for A/G / ALP / ALT / AST / BUN / CRE / Ca / Cl / DBIL / GLC / IP / K / LDH / Na / PL / RALB / TBIL / TC / TG / TP / gamma-GTP: tissue Plasma

Work on `CC1=C(/C=C/C(C)=C/C=C/C(C)=C/CO)C(C)(C)CCC1` [RETINOL] yielded a TERMINAL_BW (72 h, time 3 day) of 230.9 g, an APTT (72 h, time 3 day) of 22.3 s and a Bas (72 h, time 3 day) of 0%. For the same compound, the Eos (72 h, time 3 day) was 0.8%, the Fbg (72 h, time 3 day) was 311.2 mg/dL and the Hb (72 h, time 3 day) was 13.4 g/dL. It also gave a Ht (72 h, time 3 day) of 38.9%, a Lym (72 h, time 3 day) of 80.8% and an MCH (72 h, time 3 day) of 21 pg. The MCHC (72 h, time 3 day) was 34.4%, the MCV (72 h, time 3 day) was 61.2 fL and the Mono (72 h, time 3 day) was 2.6%. It also gave a Neu (72 h, time 3 day) of 15.4%, a PT (72 h, time 3 day) of 16.8 s and a Plat (72 h, time 3 day) of 123.7 x10_4/uL. The RBC (72 h, time 3 day) was 636 x10_4/ul, the Ret (72 h, time 3 day) was 6.2% and the WBC (72 h, time 3 day) was 97.2 x10_2/uL. For the same compound, the KIDNEY_L (72 h, time 3 day) was 1 g, the KIDNEY_R (72 h, time 3 day) was 1 g and the KIDNEY_TOTAL (72 h, time 3 day) was 2 g. The LIVER (72 h, time 3 day) was 10.7 g, the A/G (72 h, time 3 day) was 1.3 and the ALP (72 h, time 3 day) was 2143.6 IU/L. For the same compound, the ALT (72 h, time 3 day) was 51.6 IU/L, the AST (72 h, time 3 day) was 82 IU/L and the BUN (72 h, time 3 day) was 17 mg/dL. It also gave a CRE (72 h, time 3 day) of 0.1 mg/dL, a Ca (72 h, time 3 day) of 11 mg/dL and a Cl (72 h, time 3 day) of 107.8 meq/L. The DBIL (72 h, time 3 day) was 0 mg/dL, the GLC (72 h, time 3 day) was 191.4 mg/dL and the IP (72 h, time 3 day) was 6.5 mg/dL. It also gave a K (72 h, time 3 day) of 4.3 meq/L, an LDH (72 h, time 3 day) of 262.6 IU/L and a Na (72 h, time 3 day) of 142.2 meq/L. For the same compound, the PL (72 h, time 3 day) was 153.6 mg/dL, the RALB (72 h, time 3 day) was 3.2 g/dL and the TBIL (72 h, time 3 day) was 0.016 mg/dL. For the same compound, the TC (72 h, time 3 day) was 78.2 mg/dL, the TG (72 h, time 3 day) was 112.6 mg/dL and the TP (72 h, time 3 day) was 5.6 g/dL. It also gave a gamma-GTP (72 h, time 3 day) of 1 IU/L, a TERMINAL_BW ([…], time 7 day) of 257.9 g and a TERMINAL_BW ([…], time 14 day) of 293.8 g. The TERMINAL_BW ([…], time 28 day) was 358.5 g, the APTT ([…], time 7 day) was 23.3 s and the Bas ([…], time 7 day) was 0%. For the same compound, the Eos ([…], time 7 day) was 0.8%, the Fbg ([…], time 7 day) was 298.4 mg/dL and the Hb ([…], time 7 day) was 13.6 g/dL. The Ht ([…], time 7 day) was 39.2%, the Lym ([…], time 7 day) was 79.4% and the MCH ([…], time 7 day) was 21.2 pg. It also gave an MCHC ([…], time 7 day) of 34.8%, an MCV ([…], time 7 day) of 60.9 fL and a Mono ([…], time 7 day) of 2.4%. For the same compound, the Neu ([…], time 7 day) was 16.8%, the PT ([…], time 7 day) was 15.9 s and the Plat ([…], time 7 day) was 111.8 x10_4/uL. The RBC ([…], time 7 day) was 644 x10_4/ul, the Ret ([…], time 7 day) was 5.1% and the WBC ([…], time 7 day) was 94.2 x10_2/uL. It also gave an APTT ([…], time 14 day) of 23.8 s, a Bas ([…], time 14 day) of 0% and an Eos ([…], time 14 day) of 0.8%. For the same compound, the Fbg ([…], time 14 day) was 295.4 mg/dL, the Hb ([…], time 14 day) was 14.4 g/dL and the Ht ([…], time 14 day) was 40.6%. The Lym ([…], time 14 day) was 83.6%, the MCH ([…], time 14 day) was 20.6 pg and the MCHC ([…], time 14 day) was 35.4%. It also gave an MCV ([…], time 14 day) of 58.2 fL, a Mono ([…], time 14 day) of 1.8% and a Neu ([…], time 14 day) of 13.2%. It also gave a PT ([…], time 14 day) of 16.2 s, a Plat ([…], time 14 day) of 107.1 x10_4/uL and an RBC ([…], time 14 day) of 698 x10_4/ul. The Ret ([…], time 14 day) was 3.9%, the WBC ([…], time 14 day) was 114.6 x10_2/uL and the APTT ([…], time 28 day) was 26.8 s. For the same compound, the Bas ([…], time 28 day) was 0%, the Eos ([…], time 28 day) was 1% and the Fbg ([…], time 28 day) was 330 mg/dL. It also gave a Hb ([…], time 28 day) of 14.9 g/dL, a Ht ([…], time 28 day) of 41.2% and a Lym ([…], time 28 day) of 82.8%. For the same compound, the MCH ([…], time 28 day) was 19.8 pg, the MCHC ([…], time 28 day) was 36.2% and the MCV ([…], time 28 day) was 54.6 fL. For the same compound, the Mono ([…], time 28 day) was 1.6%, the Neu ([…], time 28 day) was 14.6% and the PT ([…], time 28 day) was 15.8 s. The Plat ([…], time 28 day) was 102.3 x10_4/uL, the RBC ([…], time 28 day) was 756 x10_4/ul and the Ret ([…], time 28 day) was 2.4%. The WBC ([…], time 28 day) was 86 x10_2/uL, the KIDNEY_L ([…], time 7 day) was 1.1 g and the KIDNEY_R ([…], time 7 day) was 1.1 g. The KIDNEY_TOTAL ([…], time 7 day) was 2.2 g, the KIDNEY_L ([…], time 14 day) was 1.1 g and the KIDNEY_R ([…], time 14 day) was 1.2 g. For the same compound, the KIDNEY_TOTAL ([…], time 14 day) was 2.3 g, the KIDNEY_L ([…], time 28 day) was 1.3 g and the KIDNEY_R ([…], time 28 day) was 1.3 g. The KIDNEY_TOTAL ([…], time 28 day) was 2.6 g, the LIVER ([…], time 7 day) was 12.5 g and the LIVER ([…], time 14 day) was 12.9 g. The LIVER ([…], time 28 day) was 14.9 g, the A/G ([…], time 7 day) was 1.3 and the ALP ([…], time 7 day) was 1621.4 IU/L. For the same compound, the ALT ([…], time 7 day) was 41.6 IU/L, the AST ([…], time 7 day) was 68.2 IU/L and the BUN ([…], time 7 day) was 17.2 mg/dL. For the same compound, the CRE ([…], time 7 day) was 0.2 mg/dL, the Ca ([…], time 7 day) was 10.7 mg/dL and the Cl ([…], time 7 day) was 107.2 meq/L. The DBIL ([…], time 7 day) was 0 mg/dL, the GLC ([…], time 7 day) was 193.2 mg/dL and the IP ([…], time 7 day) was 6.2 mg/dL. It also gave a K ([…], time 7 day) of 4.1 meq/L, an LDH ([…], time 7 day) of 216 IU/L and a Na ([…], time 7 day) of 142.4 meq/L. For the same compound, the PL ([…], time 7 day) was 157.4 mg/dL, the RALB ([…], time 7 day) was 3.2 g/dL and the TBIL ([…], time 7 day) was 0.006 mg/dL. The TC ([…], time 7 day) was 76.4 mg/dL, the TG ([…], time 7 day) was 160.4 mg/dL and the TP ([…], time 7 day) was 5.7 g/dL. It also gave a gamma-GTP ([…], time 7 day) of 1.4 IU/L, an A/G ([…], time 14 day) of 1.2 and an ALP ([…], time 14 day) of 1426.6 IU/L. The ALT ([…], time 14 day) was 42.8 IU/L, the AST ([…], time 14 day) was 70.6 IU/L and the BUN ([…], time 14 day) was 17.6 mg/dL. It also gave a CRE ([…], time 14 day) of 0.2 mg/dL, a Ca ([…], time 14 day) of 10.6 mg/dL and a Cl ([…], time 14 day) of 108.4 meq/L. The DBIL ([…], time 14 day) was 0 mg/dL, the GLC ([…], time 14 day) was 195 mg/dL and the IP ([…], time 14 day) was 5.7 mg/dL. It also gave a K ([…], time 14 day) of 4 meq/L, an LDH ([…], time 14 day) of 181.2 IU/L and a Na ([…], time 14 day) of 143.2 meq/L. For the same compound, the PL ([…], time 14 day) was 150 mg/dL, the RALB ([…], time 14 day) was 3.1 g/dL and the TBIL ([…], time 14 day) was 0.004 mg/dL. The TC ([…], time 14 day) was 70.2 mg/dL, the TG ([…], time 14 day) was 156.8 mg/dL and the TP ([…], time 14 day) was 5.7 g/dL. For the same compound, the gamma-GTP ([…], time 14 day) was 0.8 IU/L, the A/G ([…], time 28 day) was 1.2 and the ALP ([…], time 28 day) was 1127 IU/L. The ALT ([…], time 28 day) was 46.2 IU/L, the AST ([…], time 28 day) was 69.4 IU/L and the BUN ([…], time 28 day) was 15.2 mg/dL. It also gave a CRE ([…], time 28 day) of 0.2 mg/dL, a Ca ([…], time 28 day) of 10.4 mg/dL and a Cl ([…], time 28 day) of 108.4 meq/L. It also gave a DBIL ([…], time 28 day) of 0 mg/dL, a GLC ([…], time 28 day) of 182.8 mg/dL and an IP ([…], time 28 day) of 5.8 mg/dL. The K ([…], time 28 day) was 4.1 meq/L, the LDH ([…], time 28 day) was 167.2 IU/L and the Na ([…], time 28 day) was 142 meq/L. For the same compound, the PL ([…], time 28 day) was 140.2 mg/dL, the RALB ([…], time 28 day) was 3.2 g/dL and the TBIL ([…], time 28 day) was 0.016 mg/dL. It also gave a TC ([…], time 28 day) of 67.8 mg/dL, a TG ([…], time 28 day) of 168.2 mg/dL and a TP ([…], time 28 day) of 6 g/dL. It also gave a gamma-GTP ([…], time 28 day) of 1.4 IU/L.

— ChEMBL document CHEMBL3885861, “Open TG-GATES”
